Laboratory results as given in the supplement of paper PMC10883282.
± gives the standard deviation of the averaged measurements.

Key:
Assay in all cases: relative viability vs DMSO control (72 h) (fraction); higher = more viable cells
SK-LMS-1 = tested on: SK-LMS-1
Procedure, shortened: (§1)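 After seeding at densities set for 80–90% confluence in 384-well plates, sarcoma cell lines waited 24 h before 2.5 µl of serially diluted compound was added. Source plates held 10 mM down to 0.0002 mM. Plates were incubated 72 h at 37 °C with 5% CO2, with 0.1% DMSO vehicle and a 5 µM positive control, and relative viability was taken from ATPLite as percent growth averaged over up to triplicate wells, with 1 set as full and 0 as none.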

VA-ES-BJ = tested on: VA-ES-BJ
Procedure, shortened: as §1

KHOS-240S = tested on: KHOS-240S
Procedure, shortened: as §1

A204 = tested on: A204
Procedure, shortened: as §1

MES-SA = tested on: MES-SA
Procedure, shortened: as §1

SW1353 = tested on: SW1353
Procedure, shortened: as §1

SK-ES-1 = tested on: SK-ES-1
Procedure, shortened: as §1

RD = tested on: RD
Procedure, shortened: as §1

SW872 = tested on: SW872
Procedure, shortened: as §1

G401 = tested on: G401
Procedure, shortened: as §1

HS729 = tested on: HS729
Procedure, shortened: as §1

SW982 = tested on: SW982
Procedure, shortened: as §1

Cc1cc2c(F)c(Oc3ncnn4cc(OC[C@@H](C)OC(=O)[C@H](C)N)c(C)c34)ccc2[nH]1 [Brivanib_alaninate]
Settings	relative viability
A204, 0.00017 µM	1.05 ± 0.0083
A204, 0.00051 µM	1.05 ± 0.056
A204, 0.00152 µM	1.07 ± 0.052
A204, 0.00457 µM	1.11 ± 0.05
A204, 0.01372 µM	1.08 ± 0.04
A204, 0.04115 µM	1.04 ± 0.022
A204, 0.1235 µM	1.03 ± 0.053
A204, 0.3704 µM	1.05 ± 0.048
A204, 1.111 µM	0.999 ± 0.091
A204, 3.333 µM	0.958 ± 0.059
A204, 10 µM	0.567 ± 0.04
G401, 0.00017 µM	0.968 ± 0.025
G401, 0.00051 µM	0.967 ± 0.047
G401, 0.00152 µM	1 ± 0.026
G401, 0.00457 µM	1.01 ± 0.019
G401, 0.01372 µM	0.974 ± 0.01
G401, 0.04115 µM	0.995 ± 0.015
G401, 0.1235 µM	0.982 ± 0.011
G401, 0.3704 µM	0.976 ± 0.07
G401, 1.111 µM	1 ± 0.013
G401, 3.333 µM	0.953 ± 0.0097
G401, 10 µM	0.8674 ± 0.0042
HS729, 0.00017 µM	0.943 ± 0.044
HS729, 0.00051 µM	0.893 ± 0.075
HS729, 0.00152 µM	0.914 ± 0.047
HS729, 0.00457 µM	0.878 ± 0.071
HS729, 0.01372 µM	0.9 ± 0.068
HS729, 0.04115 µM	0.897 ± 0.074
HS729, 0.1235 µM	0.877 ± 0.068
HS729, 0.3704 µM	0.898 ± 0.053
HS729, 1.111 µM	0.923 ± 0.022
HS729, 3.333 µM	0.891 ± 0.064
HS729, 10 µM	0.782 ± 0.066
KHOS-240S, 0.00017 µM	1.016 ± 0.01
KHOS-240S, 0.00051 µM	1.04 ± 0.027
KHOS-240S, 0.00152 µM	1.03 ± 0.013
KHOS-240S, 0.00457 µM	1.04 ± 0.033
KHOS-240S, 0.01372 µM	1.052 ± 0.009
KHOS-240S, 0.04115 µM	1.03 ± 0.013
KHOS-240S, 0.1235 µM	1.03 ± 0.018
KHOS-240S, 0.3704 µM	1.04 ± 0.014
KHOS-240S, 1.111 µM	1.007 ± 0.0074
KHOS-240S, 3.333 µM	0.93 ± 0.029
KHOS-240S, 10 µM	0.738 ± 0.019
MES-SA, 0.00017 µM	0.919 ± 0.034
MES-SA, 0.00051 µM	0.939 ± 0.011
MES-SA, 0.00152 µM	0.939 ± 0.021
MES-SA, 0.00457 µM	0.929 ± 0.0099
MES-SA, 0.01372 µM	0.927 ± 0.028
MES-SA, 0.04115 µM	0.911 ± 0.017
MES-SA, 0.1235 µM	0.92 ± 0.04
MES-SA, 0.3704 µM	0.942 ± 0.016
MES-SA, 1.111 µM	0.956 ± 0.021
MES-SA, 3.333 µM	0.829 ± 0.013
MES-SA, 10 µM	0.5146 ± 0.0035
RD, 0.00017 µM	1.07 ± 0.019
RD, 0.00051 µM	1.07 ± 0.029
RD, 0.00152 µM	1.1 ± 0.039
RD, 0.00457 µM	1.09 ± 0.052
RD, 0.01372 µM	1.1 ± 0.044
RD, 0.04115 µM	1.08 ± 0.013
RD, 0.1235 µM	1.09 ± 0.031
RD, 0.3704 µM	1.1 ± 0.05
RD, 1.111 µM	1.12 ± 0.051
RD, 3.333 µM	1.04 ± 0.071
RD, 10 µM	0.874 ± 0.058
SK-ES-1, 0.00017 µM	1.07 ± 0.049
SK-ES-1, 0.00051 µM	1.07 ± 0.028
SK-ES-1, 0.00152 µM	1.06 ± 0.026
SK-ES-1, 0.00457 µM	1.05 ± 0.013
SK-ES-1, 0.01372 µM	1.05 ± 0.012
SK-ES-1, 0.04115 µM	1.03 ± 0.024
SK-ES-1, 0.1235 µM	1.06 ± 0.041
SK-ES-1, 0.3704 µM	1.05 ± 0.016
SK-ES-1, 1.111 µM	1.044 ± 0.0048
SK-ES-1, 3.333 µM	0.991 ± 0.032
SK-ES-1, 10 µM	0.921 ± 0.018
SK-LMS-1, 0.00017 µM	0.967 ± 0.088
SK-LMS-1, 0.00051 µM	0.995 ± 0.055
SK-LMS-1, 0.00152 µM	0.978 ± 0.048
SK-LMS-1, 0.00457 µM	1.01 ± 0.067
SK-LMS-1, 0.01372 µM	1.01 ± 0.035
SK-LMS-1, 0.04115 µM	0.987 ± 0.042
SK-LMS-1, 0.1235 µM	0.989 ± 0.041
SK-LMS-1, 0.3704 µM	0.998 ± 0.044
SK-LMS-1, 1.111 µM	1 ± 0.02
SK-LMS-1, 3.333 µM	0.606 ± 0.0097
SK-LMS-1, 10 µM	0.512 ± 0.014
SW872, 0.00017 µM	0.98 ± 0.023
SW872, 0.00051 µM	0.967 ± 0.034
SW872, 0.00152 µM	0.991 ± 0.033
SW872, 0.00457 µM	0.988 ± 0.048
SW872, 0.01372 µM	0.968 ± 0.048
SW872, 0.04115 µM	0.973 ± 0.041
SW872, 0.1235 µM	0.986 ± 0.05
SW872, 0.3704 µM	1.02 ± 0.044
SW872, 1.111 µM	1.04 ± 0.012
SW872, 3.333 µM	1.05 ± 0.031
SW872, 10 µM	1.03 ± 0.017
SW982, 0.00017 µM	1.05 ± 0.028
SW982, 0.00051 µM	1.03 ± 0.034
SW982, 0.00152 µM	1.04 ± 0.013
SW982, 0.00457 µM	1.04 ± 0.065
SW982, 0.01372 µM	1.05 ± 0.047
SW982, 0.04115 µM	1.05 ± 0.078
SW982, 0.1235 µM	1.06 ± 0.02
SW982, 0.3704 µM	1.04 ± 0.029
SW982, 1.111 µM	1.09 ± 0.015
SW982, 3.333 µM	1.08 ± 0.04
SW982, 10 µM	1.12 ± 0.024
SW1353, 0.00017 µM	0.949 ± 0.022
SW1353, 0.00051 µM	0.952 ± 0.033
SW1353, 0.00152 µM	0.999 ± 0.021
SW1353, 0.00457 µM	0.928 ± 0.059
SW1353, 0.01372 µM	0.97 ± 0.046
SW1353, 0.04115 µM	0.963 ± 0.028
SW1353, 0.1235 µM	0.94 ± 0.042
SW1353, 0.3704 µM	0.958 ± 0.013
SW1353, 1.111 µM	0.97 ± 0.015
SW1353, 3.333 µM	0.984 ± 0.031
SW1353, 10 µM	0.977 ± 0.022
VA-ES-BJ, 0.00017 µM	1.02 ± 0.034
VA-ES-BJ, 0.00051 µM	1.02 ± 0.046
VA-ES-BJ, 0.00152 µM	1.03 ± 0.06
VA-ES-BJ, 0.00457 µM	1.03 ± 0.042
VA-ES-BJ, 0.01372 µM	1.04 ± 0.039
VA-ES-BJ, 0.04115 µM	0.984 ± 0.029
VA-ES-BJ, 0.1235 µM	1.02 ± 0.035
VA-ES-BJ, 0.3704 µM	1.04 ± 0.024
VA-ES-BJ, 1.111 µM	1.07 ± 0.046
VA-ES-BJ, 3.333 µM	1.03 ± 0.013
VA-ES-BJ, 10 µM	0.983 ± 0.029
